Source: PubChem BioAssay AID1963972 (Molecular Pharmacology Branch, DTP, NCI, 2024)

System: 945468-187-T-J2-PDC spheroids viability
Experiment: Anticancer human tumor 945468-187-T-J2-PDC patient-derived rectal carcinoma cell line growth inhibition [PI3K]
Settings: spheroids with HUVEC and MSC; for IC50: curve of first compound; for viability, T/C: stronger effect = lower value
Summary of the method: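 Spheroid viability read-out. Co-cultures contained the tumor line plus HUVEC and human MSCs. Each agent was paired with a PI3K inhibitor (inavolisib, alpelisib, duvelisib, copanlisib) across half-log dilutions starting at clinical Cmax, or at 10 microM when Cmax was unknown.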

[1] = second compound 0.0316 µM, first compound 0.0316 µM
[2] = second compound 0.0316 µM, first compound 0.1 µM
[3] = second compound 0.0316 µM, first compound 0.316 µM
[4] = second compound 0.0316 µM, first compound 1 µM
[5] = second compound 0.0316 µM, first compound 3.16 µM
[6] = second compound 0.0316 µM, first compound 10 µM
[7] = second compound 0.1 µM, first compound 0.0316 µM
[8] = second compound 0.1 µM, first compound 0.1 µM
[9] = second compound 0.1 µM, first compound 0.316 µM
[10] = second compound 0.1 µM, first compound 1 µM
[11] = second compound 0.1 µM, first compound 3.16 µM
[12] = second compound 0.1 µM, first compound 10 µM
[13] = second compound 0.316 µM, first compound 0.0316 µM
[14] = second compound 0.316 µM, first compound 0.1 µM
[15] = second compound 0.316 µM, first compound 0.316 µM
[16] = second compound 0.316 µM, first compound 1 µM
[17] = second compound 0.316 µM, first compound 3.16 µM
[18] = second compound 0.316 µM, first compound 10 µM
[19] = second compound 1 µM, first compound 0.0316 µM
[20] = second compound 1 µM, first compound 0.1 µM
[21] = second compound 1 µM, first compound 0.316 µM
[22] = second compound 1 µM, first compound 1 µM
[23] = second compound 1 µM, first compound 3.16 µM
[24] = second compound 1 µM, first compound 10 µM
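Further: spheroids exposed to compounds for seven days before reading.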

Question: How did the IC50 (second compound 0.0316 µM) turn out when `C=CC(=O)N1CCN(c2nc(=O)n(-c3c(C)ccnc3C(C)C)c3nc(-c4c(O)cccc4F)c(F)cc23)C(C)C1` (centres undefined) + CC(Nc1ncnc2nc[nH]c12)c1cc2cccc(Cl)c2c(=O)n1-c1ccccc1 was run?
Answer: The IC50 was over 10 µM.

Question: What about the IC50 (second compound 0.1 µM) of the same compound?
Answer: Its IC50 is over 10 µM.

Question: And the IC50 (second compound 0.316 µM)?
Answer: Its IC50 is over 10 µM.

Question: What about the IC50 (second compound 1 µM) of the same compound?
Answer: The IC50 was over 10 µM.

Question: And the IC50 (second compound 3.16 µM)?
Answer: Its IC50 is over 10 µM.

Question: What about the IC50 (second compound 10 µM) of the same compound?
Answer: The IC50 was over 10 µM.

Question: What about the viability, T/C [1] of the same compound?
Answer: Its viability, T/C is 103%.

Question: And the viability, T/C [2]?
Answer: The viability, T/C was 124%.

Question: What about the viability, T/C [3] of the same compound?
Answer: Its viability, T/C is 100%.

Question: And the viability, T/C [4]?
Answer: The viability, T/C was 114%.

Question: What about the viability, T/C [5] of the same compound?
Answer: Its viability, T/C is 111%.

Question: And the viability, T/C [6]?
Answer: The viability, T/C was 95.8%.

Question: What about the viability, T/C [7] of the same compound?
Answer: Its viability, T/C is 97.5%.

Question: What about the viability, T/C [8] of the same compound?
Answer: The viability, T/C was 82.7%.

Question: And the viability, T/C [9]?
Answer: The viability, T/C was 91.5%.

Question: And the viability, T/C [10]?
Answer: The viability, T/C was 85.2%.

Question: And the viability, T/C [11]?
Answer: Its viability, T/C is 93%.

Question: What about the viability, T/C [12] of the same compound?
Answer: Its viability, T/C is 136%.

Question: What about the viability, T/C [13] of the same compound?
Answer: Its viability, T/C is 109%.

Question: And the viability, T/C [14]?
Answer: Its viability, T/C is 114%.

Question: And the viability, T/C [15]?
Answer: The viability, T/C was 96.3%.

Question: And the viability, T/C [16]?
Answer: Its viability, T/C is 105%.

Question: What about the viability, T/C [17] of the same compound?
Answer: Its viability, T/C is 106%.

Question: And the viability, T/C [18]?
Answer: The viability, T/C was 84.7%.

Question: And the viability, T/C [19]?
Answer: Its viability, T/C is 87.6%.

Question: What about the viability, T/C [20] of the same compound?
Answer: Its viability, T/C is 98.8%.

Question: What about the viability, T/C [21] of the same compound?
Answer: Its viability, T/C is 113%.

Question: What about the viability, T/C [22] of the same compound?
Answer: Its viability, T/C is 104%.

Question: What about the viability, T/C [23] of the same compound?
Answer: Its viability, T/C is 107%.

Question: What about the viability, T/C [24] of the same compound?
Answer: Its viability, T/C is 89.3%.

Question: And the viability, T/C (second compound 3.16 µM, first compound 0.0316 µM)?
Answer: Its viability, T/C is 94.6%.

Question: And the viability, T/C (second compound 3.16 µM, first compound 0.1 µM)?
Answer: The viability, T/C was 106%.

Question: What about the viability, T/C (second compound 3.16 µM, first compound 0.316 µM) of the same compound?
Answer: The viability, T/C was 104%.

Question: And the viability, T/C (second compound 3.16 µM, first compound 1 µM)?
Answer: The viability, T/C was 97.8%.

Question: And the viability, T/C (second compound 3.16 µM, first compound 3.16 µM)?
Answer: The viability, T/C was 99.6%.

Question: And the viability, T/C (second compound 3.16 µM, first compound 10 µM)?
Answer: Its viability, T/C is 104%.

Question: What about the viability, T/C (second compound 10 µM, first compound 0.0316 µM) of the same compound?
Answer: The viability, T/C was 124%.

Question: What about the viability, T/C (second compound 10 µM, first compound 0.1 µM) of the same compound?
Answer: Its viability, T/C is 122%.

Question: What about the viability, T/C (second compound 10 µM, first compound 0.316 µM) of the same compound?
Answer: Its viability, T/C is 116%.

Question: What about the viability, T/C (second compound 10 µM, first compound 1 µM) of the same compound?
Answer: Its viability, T/C is 123%.

Question: What about the viability, T/C (second compound 10 µM, first compound 3.16 µM) of the same compound?
Answer: The viability, T/C was 92.4%.

Question: What about the viability, T/C (second compound 10 µM, first compound 10 µM) of the same compound?
Answer: The viability, T/C was 90.4%.

Question: What does the source list for `CNC(=O)c1ccc(N2C(=S)N(c3ccc(C#N)c(C(F)(F)F)c3)C(=O)C2(C)C)cc1F` + COc1c(OCCCN2CCOCC2)ccc2c3n(c(=NC(=O)c4cnc(N)nc4)nc12)CCN3?
Answer: IC50 (second compound 0.00316 µM): > 10 µM; IC50 (second compound 0.01 µM): > 10 µM; IC50 (second compound 0.0316 µM): > 10 µM; IC50 (second compound 0.1 µM): > 10 µM; IC50 (second compound 0.316 µM): < 0.0316 µM; IC50 (second compound 1 µM): < 0.0316 µM; viability, T/C (second compound 0.00316 µM, first compound 0.0316 µM): 107%; viability, T/C (second compound 0.00316 µM, first compound 0.1 µM): 86.3%; viability, T/C (second compound 0.00316 µM, first compound 0.316 µM): 94.9%; viability, T/C (second compound 0.00316 µM, first compound 1 µM): 113%; viability, T/C (second compound 0.00316 µM, first compound 3.16 µM): 91.1%; viability, T/C (second compound 0.00316 µM, first compound 10 µM): 80%; viability, T/C (second compound 0.01 µM, first compound 0.0316 µM): 95.5%; viability, T/C (second compound 0.01 µM, first compound 0.1 µM): 92.2%; viability, T/C (second compound 0.01 µM, first compound 0.316 µM): 108%; viability, T/C (second compound 0.01 µM, first compound 1 µM): 110%; viability, T/C (second compound 0.01 µM, first compound 3.16 µM): 90.9%; viability, T/C (second compound 0.01 µM, first compound 10 µM): 72.1%; viability, T/C [1]: 87.8%; viability, T/C [2]: 93.1%; viability, T/C [3]: 113%; viability, T/C [4]: 111%; viability, T/C [5]: 93%; viability, T/C [6]: 109%; viability, T/C [7]: 102%; viability, T/C [8]: 94%; viability, T/C [9]: 95.9%; viability, T/C [10]: 81.2%; viability, T/C [11]: 82%; viability, T/C [12]: 64.4%; viability, T/C [13]: 33.8%; viability, T/C [14]: 39.6%; viability, T/C [15]: 48.2%; viability, T/C [16]: 38.6%; viability, T/C [17]: 38.5%; viability, T/C [18]: 34.7%; viability, T/C [19]: 18.2%; viability, T/C [20]: 21.1%; viability, T/C [21]: 17.2%; viability, T/C [22]: 23.1%; viability, T/C [23]: 23.3%; viability, T/C [24]: 21%
